From patent publication US20240043408A1, “CRYSTAL FORM OF FIBROBLAST GROWTH FACTOR RECEPTOR INHIBITOR AND PREPARATION METHOD THEREFOR” (Transthera Sciences (Nanjing), Inc., priority 2020, published 2024)
Where two headings read alike, the source gives them in different places.

Experiments:
[1] = Stability test of amorphous form and crystal form I at 105° C. and 60° C.; format: physicochemical
Protocol: The “destructive impurity” described herein refers to an additional peak in a liquid chromatogram of a sample in a stability test compared with the liquid chromatogram of the sample on day 0.
The bottles were let stand at 105° C. (samples were taken on days 3, 5 and 10) and at 60° C. (samples were taken on days 10, 20 and 30). The taken samples were investigated for changes in appearance, related substances and form.
Proper amounts of amorphous form samples of the compound (I) were placed into weighing bottles. The bottles were let stand at 105° C. (samples were taken on days 3, 5 and 10) and at 60° C. (samples were taken on days 10, 20 and 30). The taken samples were investigated for changes in appearance, related substances.

SNU-16 cells = test: Cell viability assay (Cell titer-Glo, 72 h); format: cell-based; settings: for IC50: SNU-16 gastric cancer cells with FGFR abnormalities, 72 h, Cell titer-Glo, read-out: Inhibitory activity (nM) on SNU-16 cells (IC50)
Protocol: SNU-16 is a gastric cancer cell with FGFR abnormalities.
Instrument: Espire multi-functional microplate reader
SNU-16 cells were seeded in a 96-well plate for adherent culture overnight, and then compounds at different concentrations (12 dose groups, serial 3-fold dilution with DMSO) were added to give final concentrations of 0.17-30000 nM, wherein the final DMSO content was 5%. Negative control wells contained a 5% DMSO medium. The plate was incubated at 37° C., 5% CO2 and 95% humidity for 72 h for later test. 30 μL of Cell titer-Glo reagent was added to each well, and after the plate was incubated at room temperature for 30 min, the final data were read by Espire.

[2] = Stability test of crystal form I under influencing factors (60° C., RH 92.5%, RH 75%, illumination); format: physicochemical
Description: Samples were taken on days 0, 4 and 10, and investigated for changes in properties and purity.

[3] = 60° C., Day 10, additional HPLC peaks vs day 0
[4] = Illumination (≥4500±500 Lux), Day 4
[5] = Illumination (≥4500±500 Lux), Day 10

C=CC(=O)N1C[C@@H](Nc2ncc3cc(-c4c(Cl)c(OC)cc(OC)c4Cl)ccc3n2)C[C@H]1CO [Amorphous form, 1-((2S,4S)-4-((6-(2,6-dichloro-3,5-dimethoxyphenyl)quinazolin-2-yl)amino)-2-(hydroxymethyl)pyrrolidin-1-yl)prop-2-en-1-one]
Appearance ([1]; 60° C., Day 10): Pale yellow powder | Related substances (%) ([1]; 60° C., Day 10): 0.73% | Destructive impurity (%) [1, 3]: 0.06% | Appearance ([1]; 60° C., Day 20): Pale yellow powder | Related substances (%) ([1]; 60° C., Day 20): 0.72% | Appearance ([1]; 60° C., Day 30): Pale yellow powder | Related substances (%) ([1]; 60° C., Day 30): 0.75% | Appearance ([1]; 105° C., Day 3): Pale yellow powder | Related substances (%) ([1]; 105° C., Day 3): 1.3% | Appearance ([1]; 105° C., Day 5): Pale yellow powder | Related substances (%) ([1]; 105° C., Day 5): 1.6% | Appearance ([1]; 105° C., Day 10): Pale yellow powder | Related substances (%) ([1]; 105° C., Day 10): 2.5% | Appearance ([1]; Day 0): Pale yellow powder | Destructive impurity (%) ([1]; Day 0): None | Related substances (%) ([1]; Day 0): 0.62% | Number of destructive impurities detected (HPLC) ([1]; stored at 60° C. for 30 days): 2 | Number of destructive impurities detected (HPLC) ([1]; stored at 105° C. for 10 days): 7 | IC50 (SNU-16 cells; Homo sapiens, SNU-16, 72 h): 11 nM

C=CC(=O)N1C[C@@H](Nc2ncc3cc(-c4c(Cl)c(OC)cc(OC)c4Cl)ccc3n2)C[C@H]1CO [Crystal form I, 1-((2S,4S)-4-((6-(2,6-dichloro-3,5-dimethoxyphenyl)quinazolin-2-yl)amino)-2-(hydroxymethyl)pyrrolidin-1-yl)prop-2-en-1-one]
Appearance ([2]; 60° C., Day 4, open bottle): Off-white powder | Purity % ([2]; 60° C., Day 4, open bottle): 99.6% | Appearance ([2]; 60° C., Day 10, open bottle): Off-white powder | Purity % ([2]; 60° C., Day 10, open bottle): 99.6% | Appearance ([2]; 75% RH, Day 4, open bottle): Off-white powder | Purity % ([2]; 75% RH, Day 4, open bottle): 99.6% | Appearance ([2]; 75% RH, Day 10, open bottle): Off-white powder | Purity % ([2]; 75% RH, Day 10, open bottle): 99.6% | Appearance ([2]; 92.5% RH, Day 4, open bottle): Off-white powder | Purity % ([2]; 92.5% RH, Day 4, open bottle): 99.6% | Appearance ([2]; 92.5% RH, Day 10, open bottle): Off-white powder | Purity % ([2]; 92.5% RH, Day 10, open bottle): 99.6% | Appearance ([2]; Day 0): Off-white powder | Purity % ([2]; Day 0): 99.6% | Appearance [2, 4]: Off-white powder | Purity % [2, 4]: 99.6% | Appearance [2, 5]: Pale yellow powder | Purity % [2, 5]: 99.5% | Change of appearance and purity ([2]; after 10 days in various influencing factor conditions): did not change significantly | Appearance ([1]; 60° C., Day 10): Off-white powder | Form (XRPD) ([1]; 60° C., Day 10): Crystal form I | Related substances (%) ([1]; 60° C., Day 10): 0.64% | Destructive impurity (%) [1, 3]: Undetectable | Appearance ([1]; 60° C., Day 20): Off-white powder | Form (XRPD) ([1]; 60° C., Day 20): Crystal form I | Related substances (%) ([1]; 60° C., Day 20): 0.64% | Destructive impurity (%) ([1]; 60° C., Day 20, additional HPLC peaks vs day 0): Undetectable | Appearance ([1]; 60° C., Day 30): Off-white powder | Form (XRPD) ([1]; 60° C., Day 30): Crystal form I | Related substances (%) ([1]; 60° C., Day 30): 0.68% | Destructive impurity (%) ([1]; 60° C., Day 30, additional HPLC peaks vs day 0): Undetectable | Appearance ([1]; 105° C., Day 3): Off-white powder | Form (XRPD) ([1]; 105° C., Day 3): Crystal form I | Related substances (%) ([1]; 105° C., Day 3): 0.62% | Destructive impurity (%) ([1]; 105° C., Day 3, additional HPLC peaks vs day 0): Undetectable | Appearance ([1]; 105° C., Day 5): Off-white powder | Form (XRPD) ([1]; 105° C., Day 5): Crystal form I | Related substances (%) ([1]; 105° C., Day 5): 0.60% | Destructive impurity (%) ([1]; 105° C., Day 5, additional HPLC peaks vs day 0): Undetectable | Appearance ([1]; 105° C., Day 10): Off-white powder | Form (XRPD) ([1]; 105° C., Day 10): Crystal form I | Related substances (%) ([1]; 105° C., Day 10): 0.63% | Destructive impurity (%) ([1]; 105° C., Day 10, additional HPLC peaks vs day 0): Undetectable | Appearance ([1]; Day 0): Off-white powder | Destructive impurity (%) ([1]; Day 0): None | Form (XRPD) ([1]; Day 0): Crystal form I | Related substances (%) ([1]; Day 0): 0.64% | Change of appearance, related substances and form ([1]; after storage at 105° C. for 10 days and at 60° C. for 30 days): did not change significantly | Inhibitory activity on SNU-16 cells (in words) (SNU-16 cells; SNU-16 cells with FGFR abnormalities): good inhibitory activity | IC50 (SNU-16 cells): 9.5 nM
